Columns and labels:
Candida albicans = assay: Systemic Candida albicans infection in the mouse, survival time, combination therapy with Fluconazol; format: in vivo, Maus; details: for Überlebenszeit (bez. auf Fluconazol = 100 %): mice infected i.v. with C. albicans, Fluconazol 9 x p.o. 50 mg/kg/day, combination partner 14 x p.o. 50 mg/kg/day
Source text: Als Beispiele für die systemische in vivo-Wirksamkeit der Verbindungen dient die systemische Candida albicans Infektion bei der Maus.
Ziel dieser Methode ist es, den Effekt von Präparaten auf eine systemische Candida albicans Infektion zu ermitteln. Die Infektion führt innerhalb von 2-4 Tagen zum Tod der Tiere.
Beschreibung der Methode: Albino Mäuse (NMRI, Männchen, 15-20 g Körpergewicht) werden intravenös mit Candida albicans Hefezellen infiziert (Stamm 200/175), die frisch auf Malzagar vorkultiviert wurden und in physiologischer Kochsalzlösung suspendiert wurden. Die Infektionsdosis, die in dem angegebenen Zeitrahmen zur Lethalität führt, wurde photometrisch eingestellt und enthielt eine Million Hefezellen pro Maus.
Die zu prüfenden Verbindungen werden entweder alleine oder in Kombination mit einem Standardantimykotikum verabreicht. Im durchgeführten Test wurde ein Kombinationspräparat verwendet, wobei als Standardantimykotikum Fluconazol (Fa. Pfizer) diente. Applikationswege sind je nach Substanzgruppe unterschiedlich, wobei der oralen Applikation der Vorzug gegeben wird. Die Mäuse werden 4 Wochen beobachtet, die Mortalität wird täglich registriert, und die Überlebenszeiten der einzelnen Gruppen werden gemittelt und untereinander verglichen. Gruppengröße beträgt durchschnittlich 10 Tiere.
Der Vergleich der Mittelwerte geschieht mit dem Students T Test.
Dosierungen: Fluconazol jeweils 9 x p.o. 50 mg/kg/Tag Kombinationspartner jeweils 14 x p.o. 50 mg/kg /Tag

[1] = test system: Phospholipase aus Leberzellen; details: phospholipase from liver cells; Biochem. Pharmacol. 34, 521-24, 1985; cited from earlier work
[2] = test system: Trichophyton Mentagrophytes; assay: Fungicidal (killing) effect on resting stages (microconidia) of Trichophyton Mentagrophytes, overnight incubation in aqua dest., survival after wash-out; format: cell-based; details: read-out: Fungizidie (pilzabtötende Wirkung)
Source text: Die Fungizide (pilzabtötende Wirkung) der Verbindungendes Typs der Formel I wird bestimmt, indem Ruhestadien (Vermehrungsform ist gleich Mikrokonidien) des Pilzes Trichophyton Mentagrophytes in aqua dest. über Nacht inkubiert werden. Nach Auswaschen des Präparats (vgl. H. Hänel und W. Raether in mycoses 31 (3), 148-154 (1988)) wird auf Überleben der Pilze geprüft.
Einige auf diese Weise bestimmte Werte sind in Tabelle 4 wiedergegeben (Vergleichspräparat ist Rilopirox).

| SMILES | Überlebenszeit (bez. auf Fluconazol = 100 %) (Candida albicans) | Hemmwirkung [1] | killing at 5 µg/mL [2] | killing at 10 µg/mL [2] | killing at 20 µg/mL [2] | killing at 40 µg/mL [2] | killing at 80 µg/mL [2] | Verlängerung der Überlebenszeit (Candida albicans; combination therapy with Fluconazol versus Fluconazol monotherapy, compound 14 x 50 mg/kg p.o. once daily) |
| --- | --- | --- | --- | --- | --- | --- | --- | --- |
| OC(Cn1cncn1)(Cn1cncn1)c1ccc(F)cc1F [Fluconazol, reference compound] | 100% |  |  |  |  |  |  |  |
| CC(C)NCC(O)COc1cccc2ccccc12 (stereo not shown) [Propranolol] |  | wirksamste Substanz |  |  |  |  |  |  |
| Cc1cc(COc2ccc(Oc3ccc(Cl)cc3)cc2)n(O)c(=O)c1 [Rilopirox, reference compound] |  |  | 96.2% | 100% | 100% | 100% | 100% |  |
| CCCCNCC(O)(c1ccc(Cl)cc1)C1(SCc2ccc(Cl)cc2)CC1 (stereo not shown) [Verbindung 1.4] | 157% |  |  |  |  |  |  | 57% |
| CC(C)NCC(O)(c1ccc(Cl)cc1)C1(SCc2cccc(C(F)(F)F)c2)CC1 (stereo not shown) [Verbindung 1.17] |  |  |  | 96.9% | 100% | 100% | 100% |  |
| CCCCNCC(O)(c1ccc(Cl)cc1)C1(SCc2ccc(C(C)(C)C)cc2)CC1 (stereo not shown) [Verbindung 1.29] |  |  |  | 99.7% | 100% | 100% | 100% |  |
| CC(C)OCCCNCC(O)(c1ccc(Cl)cc1)C1(SCc2ccc(C(C)(C)C)cc2)CC1 (stereo not shown) [Verbindung 1.35] |  |  | 99.3% | 100% | 100% | 100% | 100% |  |
| CC(C)(C)NCC(O)(c1ccc(Cl)cc1)C1(SCc2ccc(C(C)(C)C)cc2)CC1 (stereo not shown) [Verbindung 1.36] |  |  |  | 96.5% | 100% | 100% | 100% |  |
| CC(C)(C)NCC(O)(c1ccc(Cl)cc1)C1(SCc2ccc(Cl)cc2F)CC1 (stereo not shown) [Verbindung 1.44] |  |  |  | 99.1% | 100% | 100% | 100% |  |
| CCCCNCC(O)(c1ccc(C)cc1)C1(SCc2cccc(C(F)(F)F)c2)CC1 (stereo not shown) [Verbindung 1.48] |  |  |  | 99.4% | 100% | 100% | 100% |  |

— EP0488169A1, “Beta-Hydroxyethylamines with a 1,1-disubstituted cyclopropyl-group, process for their preparation and use” (HOECHST AKTIENGESELLSCHAFT, priority 1990, dated 1992)
